Tests used:
Type in all cases: cell-based, human
H929 cells = experiment: Viability of H929 myeloma cells (MTT); settings: 100 nM
Source text: (§1) FIG. 2 is a graph showing the viability of human myeloma cell lines in the presence of PRO-001. Viability is reported as the ratio between the optical density (OD) in the presence of FGF±inhibitor and the OD in the absence of FGF.
(§2) Non-transformed rat chondrocyte cell line expressing PGFR3 in an inducible manner (RCJ-FGFR3) has been described previously (Rauchenberger R. et al. J. Biol. Chem. 2003; 278:38194-205). Cells were maintained in α-Minimum Essential Media supplemented with 15% fetal calf serum (FCS), 2 mM L-Glutamine, 100 U/ml penicillin, 100 μg/ml streptomycin, 600 μg/ml G418 (Gibco BRL, Ontario, Canada), 2 μg/ml Tetracyclin (Sigma, Ontario, Canada), and 50 μg/ml HygromycinB (Gibco BRL). […]
(§3) Cell viability was assessed by 3-(4,5-dimethylthiazol)-2,5-diphenyl tetrazolium (MTT) or (2,3-bis(2-methoxy-4-nitro-5-sulphophenyl)-5-[(phenylamino) carbonyl]-2H-tetrazolium hydroxide (XTT) dye absorbance where indicated. Cells were seeded in 96-well plates at a density of 20,000 (FDCP-1 cells), 5,000 (B9 cells) or 25,000 cells (MM cell lines) per well in culture medium. Cells were incubated in the absence or presence of one of the following cytokines: 10 ng/ml FGF9 and 5 μg/ml heparin, 1% murine IL-6, 50 ng/ml IGF-1 or 50 ng/ml human IL-6 where indicated and increasing concentrations of PRO-001, control antibody (purified human Fab) or 100 nM PD173074. […]

8226 cells = experiment: Viability of 8226 myeloma cells (MTT); settings: 100 nM, cells lack FGFR3 expression
Source text: as §1, §2, §3

UTMC2 cells = experiment: Viability of stimulated UTMC2 myeloma cells (MTT); settings: 100 nM; MTT
Procedure: as §1
FIG. 4 is a graph showing viability of UTMC2 cells treated with FGF, IL6 or IGF-1. The dark bars represent stimulated cells treated with a control antibody; the dotted bar represents stimulated cells treated with 5 μg/ml PRO-001; the square-filled bar represents stimulated cells treated with 100 nM PD173074.
Non-transformed rat chondrocyte cell line expressing PGFR3 in an inducible manner (RCJ-FGFR3) has been described previously (Rauchenberger R. et al. J. Biol. Chem. 2003; 278:38194-205). […]
as §3

CCN(CC)CCCCNc1ncc2cc(-c3cc(OC)cc(OC)c3)c(NC(=O)NC(C)(C)C)nc2n1 [PD173074, reference compound]
Cell growth of H929 cells in the presence of FGF (H929 cells): resistant | Cell growth of 8226 cells in the presence of FGF (8226 cells): resistant | Inhibition of FGF-stimulated growth of UTMC2 (UTMC2 cells): Inhibition of FGF-stimulated growth of UTMC2 by PRO-001 was comparable to that induced by PD173074

Source: patent publication US20090175866A1, “TREATMENT OF B-CELL MALIGNANCIES” (priority 2004, published 2009)
